Results from BindingDB's records for doi:10.1038/nchembio.2087 (University of Oxford, 2016).

Key:
Experiment in all cases: Demethylase AlphaScreen Assay
Conditions in all cases: pH 7.5
[1] = target: T1, Lysine-specific demethylase 2A (Homo sapiens, UniProt Q9Y2K7)
T1 sequence (Q9Y2K7 whole entry): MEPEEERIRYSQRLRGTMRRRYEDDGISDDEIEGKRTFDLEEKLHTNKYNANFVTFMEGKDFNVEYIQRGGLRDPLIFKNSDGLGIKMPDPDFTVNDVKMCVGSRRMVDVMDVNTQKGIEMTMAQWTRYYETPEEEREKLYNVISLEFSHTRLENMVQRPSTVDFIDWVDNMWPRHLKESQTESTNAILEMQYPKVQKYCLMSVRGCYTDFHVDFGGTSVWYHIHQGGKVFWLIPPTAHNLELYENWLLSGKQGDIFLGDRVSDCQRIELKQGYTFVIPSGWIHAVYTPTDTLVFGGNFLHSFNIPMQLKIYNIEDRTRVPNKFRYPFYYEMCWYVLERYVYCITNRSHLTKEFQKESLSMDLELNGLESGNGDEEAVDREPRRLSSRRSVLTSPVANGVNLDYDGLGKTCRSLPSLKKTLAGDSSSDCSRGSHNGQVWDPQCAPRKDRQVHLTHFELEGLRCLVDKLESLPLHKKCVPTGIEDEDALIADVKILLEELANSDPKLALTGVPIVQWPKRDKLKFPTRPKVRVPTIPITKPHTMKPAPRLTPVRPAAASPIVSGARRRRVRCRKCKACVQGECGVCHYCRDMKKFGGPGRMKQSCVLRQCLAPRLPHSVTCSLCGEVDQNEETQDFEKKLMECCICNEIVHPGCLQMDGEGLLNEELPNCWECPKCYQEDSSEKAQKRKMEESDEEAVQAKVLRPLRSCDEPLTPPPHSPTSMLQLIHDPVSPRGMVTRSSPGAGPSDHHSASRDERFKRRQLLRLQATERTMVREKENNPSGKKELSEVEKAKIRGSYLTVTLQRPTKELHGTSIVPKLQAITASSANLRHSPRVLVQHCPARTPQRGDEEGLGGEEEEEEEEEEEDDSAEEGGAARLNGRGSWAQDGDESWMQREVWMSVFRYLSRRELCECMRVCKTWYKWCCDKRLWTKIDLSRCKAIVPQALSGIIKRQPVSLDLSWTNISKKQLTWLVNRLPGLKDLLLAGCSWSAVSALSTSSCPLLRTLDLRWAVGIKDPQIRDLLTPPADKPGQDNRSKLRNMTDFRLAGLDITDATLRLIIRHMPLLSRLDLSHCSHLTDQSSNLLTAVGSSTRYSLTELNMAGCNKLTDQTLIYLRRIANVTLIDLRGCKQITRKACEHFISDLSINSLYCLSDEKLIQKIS
Description: (§1) The demethylase AlphaScreen assay was performed in 384-well plate format using white proxiplates (PerkinElmer), and transfer of compound (100 nl) was performed using an ECHO 550 acoustic dispenser (Labcyte). […] All subsequent steps were carried out in assay buffer (50 mM HEPES, pH 7.5, 0.1% (wt/vol) BSA and 0.01% (vol/vol) Tween-20). In brief, 5 μl of assay buffer containing demethylase enzyme at 2× final assay concentration (see Supplementary Table 3c for assay specifics) was preincubated for 15 min with dilutions of compound.

[2] = target: T2, Lysine-specific demethylase 3A (Homo sapiens, UniProt Q9Y4C1)
T2 sequence (Q9Y4C1 whole entry): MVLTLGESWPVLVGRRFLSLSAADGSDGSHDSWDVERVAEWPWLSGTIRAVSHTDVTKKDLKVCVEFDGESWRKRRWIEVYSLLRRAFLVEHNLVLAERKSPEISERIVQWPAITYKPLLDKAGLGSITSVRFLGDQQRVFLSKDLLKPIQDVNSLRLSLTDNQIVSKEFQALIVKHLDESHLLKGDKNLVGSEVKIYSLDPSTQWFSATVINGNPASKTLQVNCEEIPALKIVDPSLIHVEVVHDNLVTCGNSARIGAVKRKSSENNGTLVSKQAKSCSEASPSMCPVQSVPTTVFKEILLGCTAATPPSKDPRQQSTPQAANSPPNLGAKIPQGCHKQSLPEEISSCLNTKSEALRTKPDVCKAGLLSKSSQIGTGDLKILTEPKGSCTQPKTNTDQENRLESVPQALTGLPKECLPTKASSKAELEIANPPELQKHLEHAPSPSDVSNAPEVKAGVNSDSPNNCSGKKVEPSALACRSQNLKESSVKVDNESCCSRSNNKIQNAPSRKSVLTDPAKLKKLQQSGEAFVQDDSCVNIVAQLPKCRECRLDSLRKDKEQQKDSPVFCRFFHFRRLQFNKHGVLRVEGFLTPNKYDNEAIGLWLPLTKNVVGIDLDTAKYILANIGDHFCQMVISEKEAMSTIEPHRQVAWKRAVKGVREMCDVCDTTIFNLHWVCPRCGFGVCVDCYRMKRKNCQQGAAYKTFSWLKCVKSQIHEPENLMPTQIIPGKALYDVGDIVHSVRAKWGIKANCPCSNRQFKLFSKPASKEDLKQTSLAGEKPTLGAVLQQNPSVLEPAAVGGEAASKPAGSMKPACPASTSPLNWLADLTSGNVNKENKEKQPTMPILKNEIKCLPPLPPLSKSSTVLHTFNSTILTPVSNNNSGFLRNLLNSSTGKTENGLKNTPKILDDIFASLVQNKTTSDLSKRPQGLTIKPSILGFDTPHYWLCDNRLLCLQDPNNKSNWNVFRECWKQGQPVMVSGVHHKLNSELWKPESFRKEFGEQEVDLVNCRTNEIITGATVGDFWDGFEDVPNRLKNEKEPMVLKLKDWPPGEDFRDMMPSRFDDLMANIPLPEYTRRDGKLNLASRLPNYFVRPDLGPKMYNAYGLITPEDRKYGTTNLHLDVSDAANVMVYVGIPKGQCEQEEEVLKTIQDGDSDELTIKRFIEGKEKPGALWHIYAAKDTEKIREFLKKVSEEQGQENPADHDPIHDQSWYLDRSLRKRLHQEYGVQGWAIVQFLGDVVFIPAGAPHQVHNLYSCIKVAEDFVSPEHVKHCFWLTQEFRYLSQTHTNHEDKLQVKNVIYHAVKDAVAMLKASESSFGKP
Description: as §1

[3] = target: T3, Lysine-specific demethylase 4C (Homo sapiens, UniProt Q9H3R0)
T3 sequence (Q9H3R0 whole entry): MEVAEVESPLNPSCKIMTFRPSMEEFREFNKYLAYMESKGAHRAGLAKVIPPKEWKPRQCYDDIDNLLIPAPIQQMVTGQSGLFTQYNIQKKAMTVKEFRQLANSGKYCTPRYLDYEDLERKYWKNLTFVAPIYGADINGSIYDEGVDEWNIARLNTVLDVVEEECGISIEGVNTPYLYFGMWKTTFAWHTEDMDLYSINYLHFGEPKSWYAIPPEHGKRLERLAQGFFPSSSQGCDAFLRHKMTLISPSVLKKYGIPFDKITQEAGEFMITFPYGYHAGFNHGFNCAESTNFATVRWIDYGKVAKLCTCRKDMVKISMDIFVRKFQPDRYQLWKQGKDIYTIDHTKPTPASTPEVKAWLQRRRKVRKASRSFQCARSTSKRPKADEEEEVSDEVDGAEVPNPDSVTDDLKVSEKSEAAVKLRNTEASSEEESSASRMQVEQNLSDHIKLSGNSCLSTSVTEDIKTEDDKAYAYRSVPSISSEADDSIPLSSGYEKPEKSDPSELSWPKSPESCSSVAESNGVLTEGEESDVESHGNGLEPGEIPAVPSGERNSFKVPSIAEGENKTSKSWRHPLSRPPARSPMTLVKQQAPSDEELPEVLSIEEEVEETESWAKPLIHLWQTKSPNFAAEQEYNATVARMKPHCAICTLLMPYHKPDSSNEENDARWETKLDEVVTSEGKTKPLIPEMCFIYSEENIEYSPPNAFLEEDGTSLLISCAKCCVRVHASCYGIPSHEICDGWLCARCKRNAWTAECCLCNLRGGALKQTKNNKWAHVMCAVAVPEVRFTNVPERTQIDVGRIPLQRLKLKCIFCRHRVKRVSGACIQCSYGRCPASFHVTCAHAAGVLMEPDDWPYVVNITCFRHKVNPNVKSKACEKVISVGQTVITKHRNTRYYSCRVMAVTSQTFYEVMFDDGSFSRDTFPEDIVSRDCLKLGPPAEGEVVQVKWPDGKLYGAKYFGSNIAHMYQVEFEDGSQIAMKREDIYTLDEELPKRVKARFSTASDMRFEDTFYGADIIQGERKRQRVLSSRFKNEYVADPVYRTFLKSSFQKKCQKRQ
Description: as §1

[4] = target: T4, Lysine-specific demethylase 5A [1-801] (Homo sapiens, UniProt P29375)
T4 construct: 1-801
T4 sequence (P29375 whole entry): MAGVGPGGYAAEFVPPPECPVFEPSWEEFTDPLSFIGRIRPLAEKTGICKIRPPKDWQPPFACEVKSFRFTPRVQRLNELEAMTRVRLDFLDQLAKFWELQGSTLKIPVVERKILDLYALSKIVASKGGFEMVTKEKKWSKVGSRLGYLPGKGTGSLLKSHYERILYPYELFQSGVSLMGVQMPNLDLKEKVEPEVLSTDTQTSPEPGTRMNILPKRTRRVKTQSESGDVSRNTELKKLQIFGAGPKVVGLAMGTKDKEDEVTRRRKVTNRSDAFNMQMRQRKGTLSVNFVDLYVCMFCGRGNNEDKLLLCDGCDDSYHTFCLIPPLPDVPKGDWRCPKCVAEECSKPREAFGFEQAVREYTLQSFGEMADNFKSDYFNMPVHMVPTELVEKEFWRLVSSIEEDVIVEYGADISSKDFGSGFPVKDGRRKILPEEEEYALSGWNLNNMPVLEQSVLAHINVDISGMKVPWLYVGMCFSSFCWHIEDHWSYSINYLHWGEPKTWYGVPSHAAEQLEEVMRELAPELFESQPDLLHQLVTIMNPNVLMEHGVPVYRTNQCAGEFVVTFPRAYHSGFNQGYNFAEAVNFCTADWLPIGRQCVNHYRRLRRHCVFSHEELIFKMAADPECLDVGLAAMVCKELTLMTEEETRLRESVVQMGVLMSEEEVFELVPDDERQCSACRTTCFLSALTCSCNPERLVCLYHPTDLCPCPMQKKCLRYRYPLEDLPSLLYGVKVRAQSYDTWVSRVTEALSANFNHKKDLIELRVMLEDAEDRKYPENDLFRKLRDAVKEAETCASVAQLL
Description: as §1

[5] = target: Lysine-specific demethylase 5B (Homo sapiens, UniProt Q9UGL1)
Description: as §1

[6] = target: T5, Lysine-specific demethylase 5C [1-765] (Homo sapiens, UniProt P41229)
T5 construct: 1-765
T5 sequence (P41229 whole entry): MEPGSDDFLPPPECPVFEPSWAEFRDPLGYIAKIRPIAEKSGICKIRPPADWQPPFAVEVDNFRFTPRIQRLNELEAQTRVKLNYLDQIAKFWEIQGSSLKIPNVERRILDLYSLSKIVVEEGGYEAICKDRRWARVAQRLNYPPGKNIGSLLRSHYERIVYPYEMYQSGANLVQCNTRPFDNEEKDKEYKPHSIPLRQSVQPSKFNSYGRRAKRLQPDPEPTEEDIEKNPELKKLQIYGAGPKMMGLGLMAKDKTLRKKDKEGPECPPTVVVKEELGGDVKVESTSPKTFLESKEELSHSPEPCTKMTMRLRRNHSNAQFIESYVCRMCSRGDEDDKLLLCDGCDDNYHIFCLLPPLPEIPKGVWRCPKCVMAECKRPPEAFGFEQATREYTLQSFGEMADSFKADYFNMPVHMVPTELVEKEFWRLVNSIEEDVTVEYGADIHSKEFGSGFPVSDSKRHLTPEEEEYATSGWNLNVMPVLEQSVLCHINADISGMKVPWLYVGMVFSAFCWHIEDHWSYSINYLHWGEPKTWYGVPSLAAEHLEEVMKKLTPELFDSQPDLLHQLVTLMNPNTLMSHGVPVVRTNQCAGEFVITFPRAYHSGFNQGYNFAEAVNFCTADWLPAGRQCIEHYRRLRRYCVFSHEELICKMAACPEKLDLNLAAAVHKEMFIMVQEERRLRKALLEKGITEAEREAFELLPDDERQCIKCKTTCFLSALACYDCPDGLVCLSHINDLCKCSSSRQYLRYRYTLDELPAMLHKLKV
Description: as §1

[7] = target: T6, Lysine-specific demethylase 5D [1-775] (Homo sapiens, UniProt Q9BY66)
T6 construct: 1-775
Description: as §1

[8] = target: Lysine-specific demethylase 6B (Homo sapiens, UniProt O15054)
Description: as §1

T6 sequence (Q9BY66 1-775): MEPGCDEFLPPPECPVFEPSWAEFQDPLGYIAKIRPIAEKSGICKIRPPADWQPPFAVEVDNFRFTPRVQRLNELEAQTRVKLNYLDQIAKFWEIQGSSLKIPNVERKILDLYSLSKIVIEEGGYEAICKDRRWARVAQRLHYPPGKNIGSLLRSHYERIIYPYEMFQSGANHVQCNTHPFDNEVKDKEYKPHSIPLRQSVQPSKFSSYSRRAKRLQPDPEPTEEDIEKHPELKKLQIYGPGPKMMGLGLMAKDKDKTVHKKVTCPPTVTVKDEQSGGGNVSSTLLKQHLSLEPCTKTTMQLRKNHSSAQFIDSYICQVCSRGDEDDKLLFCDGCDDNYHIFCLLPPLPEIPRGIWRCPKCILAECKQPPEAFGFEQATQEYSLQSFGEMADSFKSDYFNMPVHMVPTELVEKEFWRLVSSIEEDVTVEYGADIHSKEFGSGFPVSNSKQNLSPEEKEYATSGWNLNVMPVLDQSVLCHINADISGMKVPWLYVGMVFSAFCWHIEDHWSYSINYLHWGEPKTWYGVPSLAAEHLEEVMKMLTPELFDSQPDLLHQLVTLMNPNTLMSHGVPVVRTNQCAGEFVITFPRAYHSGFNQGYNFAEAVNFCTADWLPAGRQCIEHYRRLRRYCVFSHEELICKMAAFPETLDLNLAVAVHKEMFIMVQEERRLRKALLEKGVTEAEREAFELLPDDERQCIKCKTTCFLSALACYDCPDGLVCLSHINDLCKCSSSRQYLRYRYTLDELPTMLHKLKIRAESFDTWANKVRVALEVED
Lysine-specific demethylase 5B, sequence (Q9UGL1 whole entry): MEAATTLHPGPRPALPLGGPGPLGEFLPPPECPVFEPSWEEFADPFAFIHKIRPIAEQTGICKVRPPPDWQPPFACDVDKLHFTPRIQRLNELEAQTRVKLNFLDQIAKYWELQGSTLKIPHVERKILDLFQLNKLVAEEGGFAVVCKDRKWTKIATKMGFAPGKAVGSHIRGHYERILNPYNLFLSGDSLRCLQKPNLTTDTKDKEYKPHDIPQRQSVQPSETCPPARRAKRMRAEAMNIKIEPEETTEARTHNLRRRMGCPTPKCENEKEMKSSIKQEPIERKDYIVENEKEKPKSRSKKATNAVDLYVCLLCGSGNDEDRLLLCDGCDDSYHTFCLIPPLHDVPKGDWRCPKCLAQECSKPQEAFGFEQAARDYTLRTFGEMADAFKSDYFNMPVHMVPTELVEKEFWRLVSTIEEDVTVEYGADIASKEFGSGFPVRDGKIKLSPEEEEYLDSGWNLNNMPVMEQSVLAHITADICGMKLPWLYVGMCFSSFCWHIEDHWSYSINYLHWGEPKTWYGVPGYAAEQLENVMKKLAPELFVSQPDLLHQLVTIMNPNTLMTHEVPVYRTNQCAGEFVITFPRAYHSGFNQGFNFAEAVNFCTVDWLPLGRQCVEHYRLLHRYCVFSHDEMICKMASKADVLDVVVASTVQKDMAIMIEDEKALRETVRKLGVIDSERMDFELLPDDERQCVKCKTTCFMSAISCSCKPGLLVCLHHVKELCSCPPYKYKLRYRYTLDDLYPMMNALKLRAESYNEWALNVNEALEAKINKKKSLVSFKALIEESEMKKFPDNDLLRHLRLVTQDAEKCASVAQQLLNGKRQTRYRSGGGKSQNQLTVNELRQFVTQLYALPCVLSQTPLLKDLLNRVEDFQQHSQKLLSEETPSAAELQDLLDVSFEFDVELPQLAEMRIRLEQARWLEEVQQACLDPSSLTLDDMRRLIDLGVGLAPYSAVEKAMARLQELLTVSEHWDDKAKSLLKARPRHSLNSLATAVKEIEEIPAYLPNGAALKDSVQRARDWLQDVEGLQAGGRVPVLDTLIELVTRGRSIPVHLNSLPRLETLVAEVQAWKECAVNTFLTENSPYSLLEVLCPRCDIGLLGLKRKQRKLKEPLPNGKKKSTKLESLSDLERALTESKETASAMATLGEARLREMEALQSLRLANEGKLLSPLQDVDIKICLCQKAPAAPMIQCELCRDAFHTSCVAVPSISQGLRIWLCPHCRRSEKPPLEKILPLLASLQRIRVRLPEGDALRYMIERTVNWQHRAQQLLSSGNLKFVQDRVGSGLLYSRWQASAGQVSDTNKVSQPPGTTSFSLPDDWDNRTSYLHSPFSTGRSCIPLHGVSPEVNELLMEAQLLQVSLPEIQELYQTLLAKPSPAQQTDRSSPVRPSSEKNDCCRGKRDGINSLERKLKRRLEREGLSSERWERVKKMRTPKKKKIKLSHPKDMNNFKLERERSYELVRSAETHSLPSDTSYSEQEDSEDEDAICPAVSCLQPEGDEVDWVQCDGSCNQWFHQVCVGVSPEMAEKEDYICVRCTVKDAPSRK
Lysine-specific demethylase 6B, sequence (O15054 whole entry): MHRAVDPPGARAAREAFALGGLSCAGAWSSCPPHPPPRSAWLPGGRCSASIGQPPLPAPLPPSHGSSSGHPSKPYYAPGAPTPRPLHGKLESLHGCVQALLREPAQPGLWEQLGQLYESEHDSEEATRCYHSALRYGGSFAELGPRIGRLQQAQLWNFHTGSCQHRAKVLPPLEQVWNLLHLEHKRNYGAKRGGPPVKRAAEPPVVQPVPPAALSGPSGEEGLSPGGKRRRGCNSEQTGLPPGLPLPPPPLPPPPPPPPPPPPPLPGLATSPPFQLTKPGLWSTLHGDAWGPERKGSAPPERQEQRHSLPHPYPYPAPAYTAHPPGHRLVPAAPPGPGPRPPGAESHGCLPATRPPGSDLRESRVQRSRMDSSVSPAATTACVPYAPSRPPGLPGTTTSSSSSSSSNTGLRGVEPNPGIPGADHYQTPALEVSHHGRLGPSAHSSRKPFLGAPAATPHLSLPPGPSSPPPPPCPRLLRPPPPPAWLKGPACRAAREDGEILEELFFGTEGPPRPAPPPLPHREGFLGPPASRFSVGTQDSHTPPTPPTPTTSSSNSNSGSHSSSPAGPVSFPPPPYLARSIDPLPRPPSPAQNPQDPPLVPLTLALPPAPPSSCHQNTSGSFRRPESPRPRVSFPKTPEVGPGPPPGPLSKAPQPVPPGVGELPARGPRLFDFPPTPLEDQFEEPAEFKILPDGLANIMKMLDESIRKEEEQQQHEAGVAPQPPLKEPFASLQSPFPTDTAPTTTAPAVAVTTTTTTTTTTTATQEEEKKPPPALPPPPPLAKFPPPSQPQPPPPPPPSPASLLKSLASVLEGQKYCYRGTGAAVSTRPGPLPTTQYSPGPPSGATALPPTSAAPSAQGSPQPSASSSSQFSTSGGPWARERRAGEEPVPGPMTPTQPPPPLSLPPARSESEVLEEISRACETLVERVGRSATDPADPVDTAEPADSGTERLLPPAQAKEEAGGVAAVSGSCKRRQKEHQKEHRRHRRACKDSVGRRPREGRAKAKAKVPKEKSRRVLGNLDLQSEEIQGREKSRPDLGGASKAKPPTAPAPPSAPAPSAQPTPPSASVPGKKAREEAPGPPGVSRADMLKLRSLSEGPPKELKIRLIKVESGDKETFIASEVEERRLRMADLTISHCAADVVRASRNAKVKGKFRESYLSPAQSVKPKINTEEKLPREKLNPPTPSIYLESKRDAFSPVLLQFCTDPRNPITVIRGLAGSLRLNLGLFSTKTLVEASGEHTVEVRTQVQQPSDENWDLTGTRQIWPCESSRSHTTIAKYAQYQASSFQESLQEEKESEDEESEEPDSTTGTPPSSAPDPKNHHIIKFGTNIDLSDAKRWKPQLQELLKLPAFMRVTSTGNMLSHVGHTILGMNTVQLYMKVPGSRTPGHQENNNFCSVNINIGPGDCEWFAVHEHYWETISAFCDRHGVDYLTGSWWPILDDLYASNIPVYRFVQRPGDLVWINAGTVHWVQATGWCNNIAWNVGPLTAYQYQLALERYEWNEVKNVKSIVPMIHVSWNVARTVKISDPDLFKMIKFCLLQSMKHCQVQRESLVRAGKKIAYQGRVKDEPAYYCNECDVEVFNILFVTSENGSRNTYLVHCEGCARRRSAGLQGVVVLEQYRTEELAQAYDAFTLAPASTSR

Row | SMILES | IC50 [1] [µM] | IC50 [2] [µM] | IC50 [3] [µM] | IC50 [4] [µM] | IC50 [5] [µM] | IC50 [6] [µM] | IC50 [7] [µM] | IC50 [8] [µM]
1 | CCN(CCN(C)C)C(=O)CNCc1cc(C(=O)O)ccn1 [KDOAM-20] | 2.2 | 0.78 | 0.21 | 0.007 | 0.004 | 0.013 | 0.015 | 1.4
2 | O=C(O)CNC(=O)C(=O)O | – | – | 41.5 | 6.9 | 24.5 | – | 5.8 | –
3 | O=C(O)CCNc1cc(N2CCc3ccccc3CC2)nc(-c2ccccn2)n1 [GSK-J1] | – | – | 64.9 | 3.9 | 0.55 | 1.5 | 1.5 | –
4 | O=C(O)c1ccnc(C(=O)O)c1 [pyridine-2,4-dicarboxylic acid] | – | – | – | 1.3 | – | – | 2.5 | –
5 | O=c1[nH]c(Oc2cnn(Cc3ccccc3)c2)nc2cnccc12 [GSK467] | – | 33.9 | 5.1 | 0.024 | 0.026 | 0.065 | 0.077 | –
